# Measurements from paper PMC9579956 (RSC Medicinal Chemistry, 2022).
# Target: Mycobacterium thermoresistible (Mtr) LpqY (Mycolicibacterium thermoresistibile, UniProt G7CES0)
# Assay type: binding
# Settings: compound 100 μM, LpqY 500 nM, 10% DMSO, duplicate
# Chain of Mycobacterium thermoresistible (Mtr) LpqY (G7CES0 29-471): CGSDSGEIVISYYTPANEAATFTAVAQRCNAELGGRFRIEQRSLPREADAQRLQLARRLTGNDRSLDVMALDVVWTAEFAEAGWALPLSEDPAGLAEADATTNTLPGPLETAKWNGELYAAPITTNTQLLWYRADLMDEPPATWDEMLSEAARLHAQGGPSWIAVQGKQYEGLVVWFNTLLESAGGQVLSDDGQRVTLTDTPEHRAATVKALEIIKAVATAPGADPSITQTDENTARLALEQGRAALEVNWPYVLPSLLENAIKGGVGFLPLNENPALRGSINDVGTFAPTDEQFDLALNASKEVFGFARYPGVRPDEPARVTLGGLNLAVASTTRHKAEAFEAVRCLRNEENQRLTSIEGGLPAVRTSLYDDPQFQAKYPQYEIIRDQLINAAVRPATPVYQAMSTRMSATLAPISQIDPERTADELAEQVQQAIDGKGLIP
row,SMILES,Screen signal/noise ratio (MST S/N)
1,"COc1cc(C2=NCCN2)ccc1-c1cn(-c2cccc(C3=NCCN3)c2)nn1 [MMV688407, 4-[4-(4,5-dihydro-1H-imidazol-2-yl)-2-methoxyphenyl]-1-[3-(4,5-dihydro-1H-imidazol-2-yl)phenyl]triazole]",8.0

# Same assay, conditions: single dose MST screen against LpqY
row,SMILES,Pathogen Box screen signal/noise ratio
1,O=C(Nc1ccc(F)c(-c2nc3cc(-c4ccccc4)cnc3[nH]2)c1)N1CCCC1 [MMV688372],0.9
2,O=C(NCCc1ccn(-c2ccccc2)n1)C1CCCCC1 [MMV688795],0.0455
3,NCCC(O)C(=O)N[C@@H]1C[C@H](N)[C@@H](OC2O[C@H](CN)[C@@H](O)[C@H](O)[C@H]2O)[C@H](O)C1OC1O[C@H](CO)[C@@H](O)[C@H](N)[C@H]1O (some centres unmarked) [MMV687796],1.2
4,Cc1cccc(-c2nc(Nc3ccncn3)c3sccc3n2)n1 [MMV688122],1.3
5,Cc1ccc2nc(Cl)c(CNCc3cccs3)cc2c1 [MMV676439],0.278
6,CC(C)n1ncc2c(C(=O)NCC(c3cccs3)N3CCOCC3)cc(-c3ccccc3)nc21 (centres unmarked) [MMV676406],2.6
7,O=C(C1CCN(c2cc(-n3cccc3)ncn2)CC1)N1CCc2ccccc2C1 [MMV687172],0.431
8,O=C(Cn1ccnc1[N+](=O)[O-])NCc1ccccc1 [MMV688773],2.9
9,O=C(NCc1cc(Cl)cc(Cl)c1)c1c(C(F)(F)F)nc2ccccn12 [MMV687699],0.8
10,COc1ccc(C2CC(c3cccs3)=NN2C(=O)c2ccco2)cc1OC (centres unmarked) [MMV019234],2.1
11,CC(=O)Nc1ccc(NC(=O)c2cc(-c3cc(Cl)ccc3O)[nH]n2)cc1 [MMV676380],1.2
12,Cc1nc(-c2ccccn2)nc(NCCc2ccc(S(C)(=O)=O)cc2)c1Cl [MMV658993],0.75
13,Nc1nc2ccc(-c3cncc(Oc4ccc(F)cc4)c3)cc2[nH]1 [MMV687248],0.2
14,"COc1cc(C2=NCCN2)ccc1-c1cn(-c2cccc(C3=NCCN3)c2)nn1 [MMV688407, 4-[4-(4,5-dihydro-1H-imidazol-2-yl)-2-methoxyphenyl]-1-[3-(4,5-dihydro-1H-imidazol-2-yl)phenyl]triazole]",8.0
15,COc1ccc(Nc2ccccc2NC(=O)c2ccc(O)nc2)cc1 [MMV676554],1.8
16,CC(c1cc(Cl)cc(Cl)c1)N(C)c1ncc2c(N)nc(N)nc2n1 (centres unmarked) [MMV689437],0.187
17,OC[C@H]1O[C@@H](n2c3ccc(Cl)cc3c3c(-c4cc5ccccc5o4)ncnc32)C(O)[C@H]1O (some centres unmarked) [MMV688921],1.1
18,Cc1ncc(-c2ccnc(Nc3ccc(S(C)(=O)=O)cc3)n2)n1C(C)C [MMV676604],4.2
19,Nc1ccc2ncnc(Nc3ccc(OCc4cccc(F)c4)c(Cl)c3)c2c1 [MMV688273],0.8
20,Cc1ccc(NC(=O)c2cc(S(=O)(=O)NC(C)(C)C)ccc2C)nc1 [MMV020289],1.4
21,CC1CCCN(C(=O)C(C)Nc2cc(Cl)ccc2N2CCOCC2)C1 (centres unmarked) [MMV020388],0.556
22,Cc1cc(O)nc(-n2nc(C)cc2C)n1 [MMV393995],0.65
23,Cc1ccc(Oc2ccc(NC(=O)CNc3ccccc3N3CCCC3=O)cc2)cc1 [MMV020512],3.4
24,Clc1ccc(Cl)c(CO[C@H]2CCCC[C@@H]2n2ccnc2)c1 [MMV676048],1.1
25,CN1CCC(NCc2cccc(-c3ccc(S(=O)(=O)NCc4ccccc4)cc3)c2)CC1 [MMV022029],-0.0167
26,N#CCN(CCCCN1CCN(c2ccc(F)cc2)CC1)C(=O)OCc1ccccc1 [MMV675997],0.322

row,SMILES,Pathogen Box screen signal/noise ratio
1,CCOc1ccccc1NC(C)C(=O)Nc1cc(C(F)(F)F)ccc1N1CCOCC1 (centres unmarked) [MMV407834],2.3
2,C[C@]1(O)C[C@@H](c2nc(-c3ccc4ccc(-c5ccccc5)nc4c3)c3c(N)nccn32)C1 [MMV676605],0.9
3,Clc1ccc(-n2cc(COc3ccnc4ccccc34)nn2)cc1 [MMV675994],3.3
4,CCOc1ccc(-c2nc(CNCCc3ccc(F)cc3)cs2)cc1 [MMV688938],-0.25
5,Oc1c(I)cc(I)c2cccnc12 [MMV002817],0.152
6,COc1ccc(S(=O)(=O)Nc2ccc(CN3CCN(C(=O)c4cccc(C#N)c4)CC3)cc2)cc1 [MMV689029],0.156
7,NCCN(C(=O)c1ccc(Cl)cc1Cl)c1ccc(OCc2ccc(Cl)cc2)cc1 [MMV688371],1.7
8,O=C(c1[nH]nc2c1CCCC2)N1CCN(Cc2ccc3c(c2)OCO3)CC1 [MMV676389],1.7
9,CC(C)(C)c1ccc(N[C@@H]2CCCC[C@H]2NC(=O)c2ccco2)cc1 [MMV675969],0.3
10,NS(=O)(=O)c1cncc(-c2ccc3nccc(-c4cn[nH]c4)c3n2)c1 [MMV024101],0.429
11,c1ccc(Oc2ccc(-c3cc(N4CCNCC4)[nH]n3)cc2)cc1 [MMV687706],-0.0238
12,Cc1nn(Cc2ccccc2)c(Cl)c1C(=O)NC1CCCCCC1 [MMV063404],2.2
13,CNC(=O)C1Cc2ccccc2N1C(=O)Cc1ccc(F)cc1 (centres unmarked) [MMV188296],1.9
14,O=C(NC1=NCCS1)c1sc2cc(F)ccc2c1Cl [MMV676584],1.1
15,CCc1ccccc1-n1c(C)cn2c3c(=O)n(C(C(=O)OC)C(C)C)c(=O)n(C)c3nc12 (centres unmarked) [MMV688550],0.222
16,COc1cncc(-c2cncc(N3CCN(c4ccncc4)CC3)n2)c1 [MMV085071],1.2
17,CCCCOC(=O)Nc1cc2nc(C3CCCCC3)[nH]c2cc1N1CCCC1 [MMV687730],1.3
18,O=C(Nc1ccc(N2CCNCC2)cc1)c1ccn2ncc(-c3cccc(Cl)c3)c2n1 [MMV022478],2.0
19,CC1=Nc2ccc(Cl)cc2C(c2ccccc2)N1CCNC(=O)CN(C)C (centres unmarked) [MMV688410],0.5
20,Cc1nn2c(O)c3c(nc2c1-c1ccc(F)cc1)CCCC3 [MMV099637],3.3
21,Cc1cnc(N2CCN[C@@H](Cc3ccccc3)C2)nc1Oc1ccc(-n2ccnc2)cc1 [MMV687765],2.2
22,COC(=O)c1ccc(F)cc1NS(=O)(=O)c1cccc(-c2cnn(Cc3ccccc3)c2)c1 [MMV688350],1.5
23,Cc1nc(-c2ccccn2)nc(N2CCC(Cc3ccccc3)C2)c1Cl (centres unmarked) [MMV659004],0.2
24,Cc1nn(C)c(C)c1NS(=O)(=O)c1c(Cl)cc(-c2ccnc(N3CCNCC3)c2)cc1Cl [MMV688180],0.15
25,Cc1cc(C)cc(COc2ccc3c(C)c(CCC(=O)O)c(=O)oc3c2C)c1 [MMV676476],2.7
26,COc1ccc2nc(C)cc(OCC(=O)NCc3ccccc3)c2c1 [MMV687189],0.0536

row,SMILES,Pathogen Box screen signal/noise ratio
1,O=C(NC1CCCCC1)N1CCN(Cc2ccc3c(c2)OCO3)CC1 [MMV676444],1.3
2,N#Cc1nc(-c2ccccc2)oc1S(=O)(=O)c1ccc(Cl)cc1 [MMV676412],0.6
3,C[C@H](C(N)=O)N1CCCC[C@H]1c1ccc(OCc2cccc(F)c2)cc1 [MMV676269],0.212
4,O=C(Nc1nc(-c2ccccn2)cs1)C1CC1c1ccccc1F (centres unmarked) [MMV1028806],0.225
5,COc1ccc(C2=NN(C3CCCCCC3)C(=O)C2(C)C)cc1OCCCCOc1ccc(-c2nn[nH]n2)cc1 [MMV690028],2.5
6,COc1ccc2nccc(NC(=O)C3CCN(CCc4ccc(Cl)cc4)CC3)c2n1 [MMV688844],0.7
7,Cc1cc(C)n(-c2ccc(NC(=O)C3CCN(Cc4cnc(C)s4)CC3)cc2)n1 [MMV007625],1.4
8,CC1CC1C(=O)NC1CCN(CC2(c3ccccc3)CCCCC2)CC1 (centres unmarked) [MMV020120],1.1
9,CNc1nnc(Sc2cnn(-c3ccccc3)c(=O)c2Cl)s1 [MMV688763],4.7
10,FC(F)(F)c1ccc(N(c2cccnc2)C2CCN(c3ccc(C(F)(F)F)cn3)CC2)cc1 [MMV689243],1.4
11,Cc1ccc2nc(C)c(-c3ccn(Cc4ccccc4)n3)n2c1 [MMV688939],-0.2
12,O=C(Nc1ccccc1)c1ccc(-c2cc3ccncc3cc2OC2CCNCC2)s1 [MMV024035],2.8
13,CC(C)(C)C(O)C(Oc1ccc(-c2ccccc2)cc1)n1cncn1 (centres unmarked) [MMV688942],0.451
14,O=C1O[C@@H](COc2ccon2)CN1c1cc(F)c(C2=CCN(Cc3ccccc3)CC2)c(F)c1 [MMV687813],1.0
15,N=C(N)Nc1ccc(-c2ccc(-c3ccc(NC(=N)N)cc3Cl)o2)c(Cl)c1 [MMV688179],2.0
16,COc1ccc(-c2cnc3ccc(N4CCCC4)nn23)cc1OC [MMV023985],2.0
17,CCc1ccc([C@@H]2C[C@H](C(F)(F)F)n3ncc(C(=O)NCc4ccc(OC)cc4)c3N2)cc1 [MMV687180],1.9
18,Nc1ncnc2c1ncn2[C@@H]1O[C@H](COS(=O)(=O)NC(=O)c2ccccc2O)[C@@H](O)[C@H]1O [MMV687700],1.1
19,COc1ccc(CCN2CCC(NCc3cccc(N(C)C)c3)CC2)cc1 [MMV011511],0.8
20,Cc1cc(C2=NOC(c3cc(Cl)c(F)c(Cl)c3)(C(F)(F)F)C2)ccc1C(=O)NCc1ccc2c(c1)C(C)(C)OB2O (centres unmarked) [MMV687776],1.6
21,Cc1ccc(S(=O)(=O)Nc2ccc(CN3CCN(C(=O)c4cccc(C#N)c4)CC3)cc2)cc1 [MMV689028],-0.5
22,CCOC(=O)c1cc(-c2csc(Nc3c(C)cc(C)cc3C)n2)on1 [MMV676461],2.4
23,CN1CCN(S(=O)(=O)c2ccc(-c3ccc4c(Nc5ccc6nn[nH]c6c5)ccnc4c3)cc2)CC1 [MMV687246],2.8
24,Nc1nc(N)c2c3c(sc2n1)CN(Cc1ccccc1)CC3 [MMV688345],2.8
